Key:
Type in all cases: cell-based
[1] = tested on: root meristem cells of Allium cepa; assay: In vitro antimitotic activity and cytogenetic analysis, Allium cepa meristem root model; settings: compounds 1 mg/mL, PC (EMS) 2 × 10^−2 M
Procedure: Small bulbs (1.5–2.0 cm in diameter) of the common onion, A. cepa (2n = 16), were purchased from vendor at a local market. Prior to initiating the test, the outer scales of the bulbs and the dry bottom plate were removed without destroying the root primordia. The roots of A. cepa were grown in distilled water in Erlenmeyer flasks (200 mL capacity) under laboratory conditions (dark 24 °C). For each synthesized compound sample, after reaching a length of 3 cm (±0.5 cm), a series of six bulbs were placed in distilled water (pH 7.3) for 48 h and then onion roots were treated with the synthesized compound at 1 mg/mL concentrations of each tested compound. The test tubes were kept in an incubator at 22 ± 1 °C, and the test samples were changed daily at the same time. Several of the newly formed root tips were then cut from each bulb and examined for any visible morphological abnormalities. The bulbs with satisfactory root lengths (2–2.5 cm) were used in the study, while those with exceptionally long or short roots were discarded (on average 2–3 bulbs). Therefore, individual sets of five bulbs were used for each extract sample.
Distilled water (pH 7.3) was used as a negative control, and EMS (2 × 10^−2 M) used as a positive control mutagen (Fiskesjo, [1993], [1997]). After 24 h of exposure, several root tips were removed from the bulbs, fixed in 3:1 (v/v) ethanol (90 %)/glacial acetic acid (45 %) and stored overnight at 4 °C. The next day, they were placed in 70 % (v/v) aqueous alcohol and refrigerated until used. Allium roots were softened by digesting with HCl and rinsed the roots in water. After removing the water from the third rinse, the roots were covered with the orcein acetate stain. The roots were incubated in the stain for 12 min. During this time, the very tip of the root begins to turn red as the DNA stains the numerous small actively dividing cells at the tip. A root was transferred to the centre of a clean microscope slide, and a drop of water was added. Using a razor blade most of the unstained part of the root was cut off and discarded. The root tip was covered with a cover slip and then carefully pushed down on the cover slide with the wooden end of a dissecting probe. […] The root tip should spread out to a diameter about 0.5–1 cm. Five slides were prepared per bulb.
The following parameters were used for the determination of cytotoxicity and genotoxicity: • (i) the mitotic index (MI) was calculated as the ratio between the number of mitotic cells and the total number of cells scored and expressed as percentage using following formula as per standard procedures. Mitoticindex=Numberofdividingcells/Totalnumberofcells×100 • (ii) Chromatin aberrations (stickiness, breaks and polar deviation) were used as end points for the determination of cytogenetic effects, and micronuclei (MNC) were scored in interphase cells per 1,000 cells (‰ MNC) (Freshney, [2000]). • (iii) The most frequent abnormalities are shown in microphotographs. After 72 h of exposure to the test samples, the root lengths were measured and used as an index of general toxicity. The results for mitotic index and root length are expressed as percentage of the negative and positive controls. Visible morphological modifications, such as changes in root consistency and colour as well as the presence of swelling (c-tumours), hooks or twists in the roots, were also observed.

[2] = tested on: HEK 293 (human epidermal kidney cell line); assay: In vitro cytotoxicity by MTT assay, HEK 293; settings: 72 h
Procedure, shortened: (§1)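 Cells seeded at ~10,000/well in RPMI-1640 with 10 % newborn calf serum, grown 24 h, then exposed to compounds for 72 h at 37 °C, 5 % CO2. Viability read by MTT (4 h), formazan dissolved in propanol, absorbance at 490 nm.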

[3] = tested on: BT474 (breast cancer cell line); assay: In vitro cytotoxicity by MTT assay, BT474; settings: 72 h
Procedure, shortened: as §1

[4] = tested on: NCI-H226 (lung cancer cell line); assay: In vitro cytotoxicity by MTT assay, NCI-H226; settings: 72 h
Procedure, shortened: as §1

N-({5-[(3-Nitrobenzylidene)amino]-1,3,4-thiadiazol-2-yl}sulfonyl)benzamide [Compound 9i]
Aberrant cells (%) ± SEM [1]: 22.41 ± 6.18% | Chromosome breaks (%) ± SEM [1]: 7.33 ± 2.06% | MNC (‰) ± SEM (micronuclei per 1,000 cells) [1]: 0.61 ± 0.15 ‰ | Polar deviations (%) ± SEM [1]: 6.57 ± 1.33% | Stickiness (%) ± SEM [1]: 7.35 ± 2.06% | MI (%) ± SEM (mitotic index) ([1]; lower MI = higher activity, negative control 6.22): 3.07 ± 0.22% | % cytotoxicity (100 − % cell survival) of HEK 293 cell line ([2]; 0.005 μM): 33.04% | % cytotoxicity (100 − % cell survival) of HEK 293 cell line ([2]; 0.015 μM): 34.46% | % cytotoxicity (100 − % cell survival) of HEK 293 cell line ([2]; 0.045 μM): 35.12% | % cytotoxicity (100 − % cell survival) of HEK 293 cell line ([2]; 0.13 μM): 36.32% | % cytotoxicity (100 − % cell survival) of HEK 293 cell line ([2]; 0.41 μM): 36.69% | % cytotoxicity (100 − % cell survival) of HEK 293 cell line ([2]; 1.23 μM): 37.03% | % cytotoxicity (100 − % cell survival) of HEK 293 cell line ([2]; 3.7 μM): 37.19% | % cytotoxicity (100 − % cell survival) of HEK 293 cell line ([2]; 11.11 μM): 38.84% | % cytotoxicity (100 − % cell survival) of HEK 293 cell line ([2]; 33.33 μM): 39.51% | % cytotoxicity (100 − % cell survival) of HEK 293 cell line ([2]; 100 μM): 43.48% | % cytotoxicity (100 − % cell survival) of BT474 cell line ([3]; 0.005 μM): 31.52% | % cytotoxicity (100 − % cell survival) of BT474 cell line ([3]; 0.015 μM): 33.31% | % cytotoxicity (100 − % cell survival) of BT474 cell line ([3]; 0.045 μM): 34.59% | % cytotoxicity (100 − % cell survival) of BT474 cell line ([3]; 0.13 μM): 35.42% | % cytotoxicity (100 − % cell survival) of BT474 cell line ([3]; 0.41 μM): 36.12% | % cytotoxicity (100 − % cell survival) of BT474 cell line ([3]; 1.23 μM): 36.73% | % cytotoxicity (100 − % cell survival) of BT474 cell line ([3]; 3.7 μM): 37.56% | % cytotoxicity (100 − % cell survival) of BT474 cell line ([3]; 11.11 μM): 39.19% | % cytotoxicity (100 − % cell survival) of BT474 cell line ([3]; 33.33 μM): 40.50% | % cytotoxicity (100 − % cell survival) of BT474 cell line ([3]; 100 μM): 41.29% | % Cytotoxicity (100 − % cell survival) of NCI-H226 cell line ([4]; 0.005 μM): 33.61% | % Cytotoxicity (100 − % cell survival) of NCI-H226 cell line ([4]; 0.015 μM): 33.92% | % Cytotoxicity (100 − % cell survival) of NCI-H226 cell line ([4]; 0.045 μM): 33.97% | % Cytotoxicity (100 − % cell survival) of NCI-H226 cell line ([4]; 0.13 μM): 34.14% | % Cytotoxicity (100 − % cell survival) of NCI-H226 cell line ([4]; 0.41 μM): 34.59% | % Cytotoxicity (100 − % cell survival) of NCI-H226 cell line ([4]; 1.23 μM): 34.95% | % Cytotoxicity (100 − % cell survival) of NCI-H226 cell line ([4]; 3.7 μM): 35.27% | % Cytotoxicity (100 − % cell survival) of NCI-H226 cell line ([4]; 11.11 μM): 36.72% | % Cytotoxicity (100 − % cell survival) of NCI-H226 cell line ([4]; 33.33 μM): 38.57% | % Cytotoxicity (100 − % cell survival) of NCI-H226 cell line ([4]; 100 μM): 38.66%

From publication PMC3973950, “Synthesis of 5-arylidine amino-1,3,4-thiadiazol-2-[(N-substituted benzyol)]sulphonamides endowed with potent antioxidants and anticancer activity induces growth inhibition in HEK293, BT474 and NCI-H226 cells” (Medicinal Chemistry Research, 2013)
